# From patent US12391737B2, “Soluble NPY2 receptor agonists” (Boehringer Ingelheim International GmbH, priority 2020, dated 2025)
# Legend:
# Solubility determination = conditions: for Sol6: pH 6; for Sol7: pH 7
# In short: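 Sample: TFA-salt peptide at 10 mg/ml target in 0.1 M Na diphosphate, pH 6.4 or 7.0, shaken 2 h RT, filtered, diluted to 1 mg/ml.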
# [1] = biological target: T1, Human Neuropeptide Y2 Receptor (Homo sapiens, UniProt P49146); test: Radioligand binding competition assay (RLB); conditions: Table 3, 125I-PYY(1-36) competition; read-out: Ki
# T1 construct: purchased CHEMICON HTS066M
# T1 sequence (P49146 1-381): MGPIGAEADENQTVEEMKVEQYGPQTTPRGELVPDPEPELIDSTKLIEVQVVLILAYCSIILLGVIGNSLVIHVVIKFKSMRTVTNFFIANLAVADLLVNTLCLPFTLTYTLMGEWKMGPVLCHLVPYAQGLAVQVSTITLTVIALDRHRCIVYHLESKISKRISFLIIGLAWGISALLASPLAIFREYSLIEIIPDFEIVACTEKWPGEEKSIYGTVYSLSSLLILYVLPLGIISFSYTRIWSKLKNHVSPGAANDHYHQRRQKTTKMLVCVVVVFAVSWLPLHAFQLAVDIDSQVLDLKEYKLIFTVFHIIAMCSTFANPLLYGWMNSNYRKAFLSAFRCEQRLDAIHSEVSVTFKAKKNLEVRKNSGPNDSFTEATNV
# In short: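 Displacement of radioligand is measured after 2 h at room temperature with receptor membranes in Mg2+/Ca2+ HEPES buffer, pH 7.4. Filter-bound radioactivity is counted and IC50 obtained from curve fitting.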
Structure (SMILES),Sol6 (Solubility determination) [mg/mL],Sol7 (Solubility determination) [mg/mL],Ki [1] [nM]
"CC[C@H](C)[C@H](NC(=O)[C@H](Cc1ccc(O)cc1)NC(=O)[C@H](Cc1ccc(O)cc1)NC(=O)[C@H](CCCNC(=N)N)NC(=O)[C@H](CCC(N)=O)NC(=O)[C@H](CC(C)C)NC(=O)[C@H](CCC(=O)O)NC(=O)[C@H](CCC(=O)O)NC(=O)[C@@H]1CCCN1C(=O)[C@@H](NC(=O)[C@H](C)NC(=O)[C@H](C)NC(=O)[C@H](CCC(=O)O)NC(=O)[C@H](CCC(=O)O)NC(=O)[C@@H]1CCCN1C(=O)[C@H](CCCCNC(=O)CCCCCNC(=O)CC[C@H](NC(=O)CCCCCCCCCCCCCCCCC(=O)O)C(=O)O)NC(=O)[C@H](C)NC(=O)[C@@H]1CCCN1C(=O)[C@H](C)NC(=O)CC(C)C)[C@@H](C)O)C(=O)N[C@@H](CO)C(=O)N[C@@H](CC(C)C)C(=O)N[C@@H](CCCNC(=N)N)C(=O)N[C@@H](Cc1c[nH]cn1)C(=O)N[C@@H](Cc1ccc(O)cc1)C(=O)N[C@@H](Cc1ccc(O)cc1)C(=O)N[C@@H](CC(N)=O)C(=O)N[C@@H](Cc1c[nH]c2ccccc12)C(=O)N[C@@H](CC(C)C)C(=O)N[C@H](C(=O)N[C@@H](CCCNC(=N)N)C(=O)N[C@@H](CCC(N)=O)C(=O)N[C@@H](CCCNC(=N)N)C(=O)N[C@@H](Cc1ccc(O)cc1)C(N)=O)[C@@H](C)O [Compound 48, N{alpha-4}-(3-methylbutanoyl)-N{epsilon-7}-(6-[(4S)-4-carboxy-4-(17-carboxyheptadecanamido)butanamido]hexanoyl)-[4A,6A,7K,9E,11A,13T,18Q,22I,28Y,30W,31L]-hPYY(4-36)]",0.0,0.3,1.54
"CC(C)CC(=O)N[C@@H](C)C(=O)N1CCC[C@H]1C(=O)N[C@@H](CCC(=O)O)C(=O)N[C@@H](CCCCNC(=O)CCCCCNC(=O)CC[C@H](NC(=O)CCCCCCCCCCCCCCCCC(=O)O)C(=O)O)C(=O)N1CCC[C@H]1C(=O)N[C@@H](CCC(=O)O)C(=O)N[C@@H](CCC(=O)O)C(=O)N[C@@H](CC(=O)O)C(=O)N[C@@H](C)C(=O)N[C@H](C(=O)N1CCC[C@H]1C(=O)N[C@@H](CCC(=O)O)C(=O)N[C@@H](CCC(=O)O)C(=O)N[C@@H](CC(C)C)C(=O)N[C@@H](CCC(N)=O)C(=O)N[C@@H](CCCNC(=N)N)C(=O)N[C@@H](Cc1ccc(O)cc1)C(=O)N[C@@H](Cc1ccc(O)cc1)C(=O)N[C@H](C(=O)N[C@@H](CC(C)C)C(=O)N[C@@H](CC(C)C)C(=O)N[C@@H](CCCNC(=N)N)C(=O)N[C@@H](Cc1c[nH]cn1)C(=O)N[C@@H](Cc1ccc(O)cc1)C(=O)N[C@@H](Cc1ccc(O)cc1)C(=O)N[C@@H](CC(N)=O)C(=O)N[C@@H](Cc1c[nH]c2ccccc12)C(=O)N[C@@H](CC(C)C)C(=O)N[C@H](C(=O)N[C@@H](CCCNC(=N)N)C(=O)N[C@@H](CCC(N)=O)C(=O)N[C@@H](CCCNC(=N)N)C(=O)N[C@@H](Cc1ccc(O)cc1)C(N)=O)[C@@H](C)O)C(C)C)[C@@H](C)O [Compound 49, N{alpha-4}-(3-methylbutanoyl)-N{epsilon-7}-(6-[(4S)-4-carboxy-4-(17-carboxyheptadecanamido)butanamido]hexanoyl)-[4A,7K,9E,13T,18Q,22V,23L,28Y,30W,31L]-hPYY(4-36)]",>10.0,>10.0,11.6
